{"source": "patent US8921364B2", "about": "“Modulators of calcium release-activated calcium channel” (Rhizen Pharmaceuticals SA, priority 2009, dated 2014)", "key": {"female Balb/C mice [1]": {"tested_on": "female Balb/C mice", "experiment": "Concanavalin (Con) A induced hepatitis in female Balb/C mice", "assay_type": "in vivo", "settings": "10 mg/kg b. wt, oral, 1 hour prior to Con A, blood after 24 hours", "protocol": "Con A is often used to prepare experimental animals with high levels of cytotoxic T-lymphocytes, because these cells are involved in the development of viral infections in humans. In this model, animals were administered test compounds orally 1 hour prior to intravenous administration of Con A. Blood samples were collected after 24 hours for determination of Serum glutamic oxaloacetic transaminase (SGOT) and Serum glutamic pyruvic transaminase (SGPT) in Serum."}, "female Balb/C mice [2]": {"tested_on": "female Balb/C mice", "experiment": "TNCB induced contact hypersensitivity in female Balb/c mice", "assay_type": "in vivo", "settings": "10 mg/kg b. wt, oral, 24 h after TNCB challenge", "protocol": "Contact hypersensitivity is a simple in vivo assay of cell-mediated immune function. In this procedure, exposure of epidermal cells to exogenous haptens results in a delayed type hypersensitive reaction that can be measured and quantified. Briefly, 7% TNCB solution was applied to the abdominal region of 8 week old Balb/c mice. Ear thickness was measured 7 days after TNCB sensitization. Compounds were administered orally followed by an application of 1% TNCB to inside and outside of ear pinnae. Ear thickness was measured 24 h after TNCB challenge"}, "male Balb/c mice": {"tested_on": "male Balb/c mice", "experiment": "Foot paw delayed type hypersensitivity in male Balb/c mice", "assay_type": "in vivo", "settings": "10 mg/kg, daily treatment day 0 to day 10", "protocol": "DTH swelling responses can be used to follow the activity of immunosuppressive molecules and/or suppressor T cells in vivo. Intradermal antigen (methylated BSA) injections were given to mice (at base of tail) on day 0 and day 7. Compounds were administered once daily from day 0 to day 10 Methylated BSA was injected into the right hind footpad of animals on day 10. Weight difference induced by antigen was determined by weighing the right and left hind paws 24 h after injection of methylated BSA (day 11)."}, "guinea pigs": {"tested_on": "guinea pigs", "experiment": "OVA-induced asthma in guinea pigs", "assay_type": "in vivo", "settings": "10 mg/kg b. wt, oral, 1 h before OVA challenge", "protocol": "Pulmonary eosinophilia and airway remodelling in conjunction with altered neural control of airway tone and airway epithelial desquamation contributes to Airway Hyper-responsiveness (AHR) in asthma. For determination of eosinophil reduction, animals were sensitized with OVA on d0, d7, and d14 followed by another round (0.1% w/v) through inhalation on d19 & d20. Compounds were administered orally 1 h before OVA challenge (0.3%). BAL fluid was collected on d22 for differential count and cytokine estimation. For determination of change in respiratory parameters, animals were subjected to whole body plethysmography immediately after ova challenge."}, "male DBA/1 Ola HSD mice": {"tested_on": "male DBA/1 Ola HSD mice", "experiment": "Collagen-induced arthritis in male DBA/1 Ola HSD mice", "assay_type": "in vivo", "settings": "10 mg/kg b. wt, daily, po, qd", "protocol": "Collagen induced arthritis in rodent models have been widely used to illustrate and understand the development of the disease besides serving as a surrogate for validation of therapeutic targets for human rheumatoid arthritis. Mice were anesthetized with Isoflurane and given 150 μl of Bovine Type II collagen in Freund's complete adjuvant injections (day 0 and day 21). Treatment was initiated on study day 0 and continued once daily, every day (po, qd). Starting on day 18, clinical scores were given daily for each of the paws (right front, left front, right rear, left rear) and continued till the day of sacrifice (day 34). Daily administration of the test compound (Example 69) at 10 mg/kg b. wt alleviated arthritic symptoms, disease progression, and incidence by 30% compared to the control animals."}, "[3]": {"target": "CRAC channels over the voltage operated channels (VOC) (Homo sapiens (Human), UniProt Q96D31)", "sequence (Q96D31 whole entry)": "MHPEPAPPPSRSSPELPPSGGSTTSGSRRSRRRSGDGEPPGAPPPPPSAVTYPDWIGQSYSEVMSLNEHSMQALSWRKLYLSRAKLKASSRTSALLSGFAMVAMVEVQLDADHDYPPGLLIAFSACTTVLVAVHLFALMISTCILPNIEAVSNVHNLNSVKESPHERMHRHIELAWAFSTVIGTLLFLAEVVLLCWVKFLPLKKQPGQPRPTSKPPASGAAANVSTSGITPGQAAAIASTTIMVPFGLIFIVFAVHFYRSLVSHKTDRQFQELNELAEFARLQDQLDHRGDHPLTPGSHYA", "settings": "Yonetoky et al.; cited from earlier work"}, "CRAC channels": {"target": "CRAC channels (Homo sapiens (Human), UniProt Q96D31)", "sequence (Q96D31 whole entry)": "as above", "experiment": "In-vitro CRAC channel inhibition assay in Jurkat cells (thapsigargin-induced calcium influx)", "assay_type": "cell-based", "settings": "Jurkat cells, thapsigargin-induced calcium influx", "protocol": "Inhibition of CRAC channels was determined following thapsigargin (Sigma, Cat # T9033) induced endoplasmic calcium release in Jurkat cells. […] Cells were centrifuged and re-suspended in equal volumes ° f Ca^2+ and Mg^2+ free Hanks buffer and Fluo-8 NW dye (ABD Bioquest, Inc., Sunnyvale, Calif.) loading solution at 2×10^5 cells/100 μl/well in 96-well black plate. Plate is incubated at 37° C., 5% CO2 for 30 min followed by further 15 min incubation at room temperature. Test compounds (DMSO stocks diluted in Ca^2+ and Mg^2+ free Hanks buffer) at desired concentrations were added to the wells and incubated for […] Thapsigargin (1 μM final concentration) was added to the wells and incubated for 15 min to inhibit the Sarco-endoplasmic reticulum Ca^2+ ATPase pump thereby depleting endoplasmic calcium and raising cytosolic calcium concentrations. Store-operated calcium entry was initiated by adding extracellular Ca^2+ to a final concentration of 1.8 mM. Fluorescence was monitored over […] on a plate reader (BMG Labtech., Germany) with excitation at 485 nm and an emission wavelength at 520 nm. Data were analyzed using GraphPad Prism. IC50 for each compound was determined based on the percent inhibition of thapsigargin-induced calcium influx into cells."}}, "note": "Where a name gives a salt, the structure may show the parent alone."}
{"smiles": "Cc1ncc(C(=O)Nc2ccc(-n3nc(C(F)(F)F)cc3C3CC3)cc2)c(C)n1", "note": "[Example 69, N-{4-[5-cyclopropyl-3-(trifluoromethyl)-1H-pyrazol-1-yl]phenyl}-2,4-dimethylpyrimidine-5-carboxamide]", "values": [{"measurement": "reduction in serum SGOT & SGPT", "setting": "female Balb/C mice [1]", "value": "> 85", "unit": "%"}, {"measurement": "reduction in ear inflammation", "setting": "female Balb/C mice [2]", "value": "> 70", "unit": "%"}, {"measurement": "reduction in antigen-induced paw inflammation", "setting": "male Balb/c mice", "value": "> 40", "unit": "%"}, {"measurement": "reduction in blood eosinophils", "setting": "guinea pigs", "value": "> 70", "unit": "%"}, {"measurement": "respiration (whole body plethysmography)", "setting": "guinea pigs; plethysmography immediately after ova challenge", "value": "improvement in respiration"}, {"measurement": "alleviation of arthritic symptoms, disease progression, and incidence compared to control animals", "setting": "male DBA/1 Ola HSD mice", "value": 30, "unit": "%"}]}
{"smiles": "Cc1nnsc1C(=O)Nc1ccc(-n2nc(C(F)(F)F)cc2C(F)(F)F)cc1", "note": "[YM-58483]", "values": [{"measurement": "selective index (CRAC channels over VOC)", "setting": "[3]", "value": 31}]}
{"smiles": "Cc1ncsc1C(=O)Nc1ccc(-n2nc(C(F)(F)F)cc2C2CC2)cc1", "note": "[Example 53, N-{4-[5-cyclopropyl-3-(trifluoromethyl)-1H-pyrazol-1-yl]phenyl}-4-methylthiazole-5-carboxamide]", "values": [{"measurement": "IC50", "setting": "CRAC channels", "value": 72, "unit": "nM"}]}
{"smiles": "O=C(Nc1ccc(-n2nc(C3CC3)cc2C2CC2)c(F)c1)c1ccncc1", "note": "[Example 35, N-[4-(3,5-dicyclopropyl-1H-pyrazol-1-yl)-3-fluorophenyl]isonicotinamide hydrochloride]", "values": [{"measurement": "inhibition at 1 µM", "setting": "CRAC channels; 1 uM", "value": 100, "unit": "%"}, {"measurement": "IC50", "setting": "CRAC channels", "value": 185, "unit": "nM"}]}
{"smiles": "Cc1ncsc1C(=O)Nc1ccc(-n2nc(C3CC3)cc2C2CC2)cc1", "note": "[Example 2, N-[4-(3,5-dicyclopropyl-1H-pyrazol-1-yl)phenyl]-4-methylthiazole-5-carboxamide]", "values": [{"measurement": "IC50", "setting": "CRAC channels", "value": 207, "unit": "nM"}]}
